“Also recorded” adds a separate entry of the source. Structures can show the parent of a compound that is named as a salt.
How the values were obtained:
IκBα = assay: Immunoblot of phosphorylated IκBα in HEK293 cells; assay type: cell-based
Procedure: To measure endogenous level of several proteins in response to TPA induction and compound I, HEK293 cells were lysed with RIPA buffer (10 mM Tris-HCl pH 7.5, 1 mM EDTA, 0.1% sodium dodecyl sulfate, 0.1% deoxycholate, and protease inhibitor). Whole cell extracts were subjected to immunoblot analysis with the following antibodies: p65 (F-6), p50 (E-10), p52 (C-5), RelB (C-19), IκBα (C-21), PCNA (F-2) were obtained from Santa Cruz Biotechnology (Santa Cruz, Calif.). IKKα, IKKβ, IKKγ, phospho-IκBα, phospho-IKKα/β, phospho-IKKγ, pohospho-Stat3 (Tyr 705 and Ser 727), phospho-p65 (Ser536 and Ser276), phospho-p44/42, phospho-JNKs were purchased from Cell Signaling (Danvers, Mass.), and α-tubulin from Sigma (St. Louis, Mo.). Nuclear and cytoplasmic extracts were prepared with HEK293 cells by NE-PER Nuclear and Cytoplasmic Extraction Reagents (Pierce Biotechnology, Rockford, Ill.) according to the manufacturer's protocol.
To characterize the activity of compound I in targeting events upstream of NFκB, endogenous levels of kinases involved in NFκB activation were examined by immunoblot analysis. The well-established upstream regulators of NFκB activation are IKKα, IKKβ, and IκBα. […] Moreover, the phosphorylation of IκBα was inhibited even at 1.1 μM showing dose-dependent decrease by compound I pretreatment. […] In addition, compound I inhibits TNFα-induced phosphorylation of IKKα/β and IκBα at 1 hour. IKKβ from IKKα was not able to be distinguished in this analysis with antibodies which detect phosphorylated IKKα at Ser176/180 and IKKβ at Ser177/181. TPA-induced phosphorylation of IκBα is mediated primarily through IKKβ catalytic activity; thus compound I represses phosphorylation of IKKβ and in an embodiment both IKKβ and IKKα. […] The total protein levels of IKKα/β, IKKγ, and IκBα were not affected. Thus, upstream activation events rather than transcription factor binding to DNA are targeted by compound I when it inhibits NFκB induction.

JB6 cells (clone 41) = assay: JB6 soft agar cell transformation assay; assay type: cell-based, mouse; conditions: for Transformation response to TPA: 10 days, TPA 10 ng/ml
Procedure: JB6 cells (clone 41) were used to assess the inhibitory activity of compound I using CytoSelect 96-well Cell Transformation Assay (Cell Biolabs, Huissen, Netherlands) as Soft Agar Assay according to manufacturer's instructions. Cells were incubated for 10 days in 0.4% agar medium over 0.6% agar containing TPA or TPA with compound I or DMSO as a control. To measure anchorage-independent growth, agar-layers were dissolved and lysed. 10 μl of the lysed solutions of each well were mixed with CyQuant and the fluorescence read by iQ5 with a FAM filter of 485/520 nm. As an alternative analysis, cell dose curves of JB6 cells were quantified by the End point using CyQuant to indicate relative anchorage-independent colony number.
In order to evaluate the potential therapeutic activity of the compound, tests for the biological activity of compound I were performed. The compound is non-toxic to MCF-7, T47D, and MDA-MB-231 breast cancer cells as estimated by XTT assay at 10 μM. To determine the effects of compound I on invasion by breast cancer cell lines, a matrigel invasion assay was used. The levels of phosphorylated IκBα were confirmed in TPA treated ER-positive (MCF-7 and T47D) and ER-negative (MDA-MB-231) breast cancer cell lines and compared the levels to those after pretreatment with compound I. Although induced levels of phosphorylated IκBα varied with the cell line, IκBα phosphorylation was eliminated by compound I treatment in all three breast cancer cell lines. Compound I also produced no effect on the estrogen receptor activity in the ER-positive breast cancer cells using ERE promoter luciferase reporter assay. Invasion capacity of breast cancer cells was increased by TPA stimulation compared to DMSO treated vehicle control. […] Following anchorage-independent colony induction in TPA-treated cells without or with compound I, colonies were lysed and measured with CyQuant GR Dye to detect DNA by fluorescence plate reader as a measure of colony count. Total transformed colony numbers were calculated from RFU and cell dose curve of JB6 cells. […]

IKKβ = molecular target: T1, IKKβ (Homo sapiens, UniProt O14920); assay: K-LISA IKKβ Inhibitor Screening Kit in vitro assay; assay type: biochemical; conditions: 0.1 to 100 μM, incubated with ATP
T1 construct: purchased Calbiochem
T1 sequence (O14920 1-756): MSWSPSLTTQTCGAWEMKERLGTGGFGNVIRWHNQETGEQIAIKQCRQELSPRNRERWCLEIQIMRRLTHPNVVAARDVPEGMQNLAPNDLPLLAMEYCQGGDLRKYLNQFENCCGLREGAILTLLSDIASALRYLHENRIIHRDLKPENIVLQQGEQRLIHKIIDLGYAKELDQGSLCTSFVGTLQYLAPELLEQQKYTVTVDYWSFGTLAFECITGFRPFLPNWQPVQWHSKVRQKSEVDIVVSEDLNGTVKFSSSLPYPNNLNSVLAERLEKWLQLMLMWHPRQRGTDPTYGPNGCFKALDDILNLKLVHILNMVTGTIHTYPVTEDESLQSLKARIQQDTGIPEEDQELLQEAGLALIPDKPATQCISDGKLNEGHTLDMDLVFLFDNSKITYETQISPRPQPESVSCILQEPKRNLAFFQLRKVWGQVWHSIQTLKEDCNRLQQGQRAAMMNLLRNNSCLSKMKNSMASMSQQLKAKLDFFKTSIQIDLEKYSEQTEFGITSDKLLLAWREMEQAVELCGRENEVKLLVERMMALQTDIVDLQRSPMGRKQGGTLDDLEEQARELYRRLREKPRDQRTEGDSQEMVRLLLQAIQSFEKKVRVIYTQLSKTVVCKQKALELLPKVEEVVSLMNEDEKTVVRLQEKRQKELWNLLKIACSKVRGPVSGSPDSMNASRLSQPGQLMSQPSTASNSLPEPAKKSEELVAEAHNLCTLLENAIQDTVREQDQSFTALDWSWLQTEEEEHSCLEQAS
Procedure: In an attempt to determine whether compound I interferes with ATP binding to the catalytic site, the activity of compound I was measured with fully activated, phosphorylated IKKα or IKKβ. […] However, whether this compound interacts outside of the ATP binding pocket of IKK as an ATP non-competitive inhibitor similar to BMS-345541 is unknown. […] Luciferase activities with TPA induction alone were set at 100% and the relative activities with TPA in the presence of compounds are shown.

Cc1cc(N)ccc1N=Nc1ccc(S(=O)(=O)CCOS(=O)(=O)O)cc1 [compound I, 2-(4-((4-amino-2-methylphenyl)diazenyl)phenylsulfonyl)ethyl hydrogen sulfate]
TPA-induced phosphorylation of IκBα (IκBα; 1.1 μM): inhibited; also recorded: reduced
TPA-induced phosphorylation of IκBα (IκBα; 17.0 and 8.5 μM pretreatment, HEK293): almost completely blocked; also recorded: complete blocking
Total protein levels of IKKα/β, IKKγ, and IκBα (IκBα; HEK293 immunoblot): not affected
TPA-induced phosphorylation of IκBα (IκBα; at 6 and 12 hours): inhibited
TNFα-induced phosphorylation of IκBα (IκBα; at 1 hour): inhibits
Tumor promoter induced transformation of JB6 cells (JB6 cells (clone 41)): inhibits
Transformation response to TPA (JB6 cells (clone 41); 1.1 μM): decreased
Transformation response to TPA (JB6 cells (clone 41); 17.0 μM to 2.1 μM): repressed to below vehicle control level
Inhibition of phosphorylation of IκBα peptide substrate catalyzed by IKKβ (IKKβ): no inhibition
